What was measured:
[1] = Metabolite identification, human cryopreserved hepatocyte incubation of parent compound; type: in vitro ADME; conditions: parent incubated up to four hours
Experimental: (§1) Hepatocytes: Rat, dog and human cryopreserved hepatocyte incubations were performed using 1-{2-[5-(3-Methyl-oxetan-3-ylmethoxy)-benzoimidazol-1-yl]-quinolin-8-yl}-piperidin-4-ylamine. Rat, dog and human cryopreserved hepatocytes were obtained from In Vitro Technologies, Baltimore, Md. and suspended in Williams E Media, available from Fisher-Scientific, to a final cell density of 1×10^6 viable cells/mL. 1-{2-[5-(3-Methyl-oxetan-3-ylmethoxy)-benzoimidazol-1-yl]-quinolin-8-yl}-piperidin-4-ylamine was incubated in these hepatocyte suspensions at a final concentration of […] at 37° C. in a shaking water bath for up to four hours. A 5 mL aliquot was removed from each incubation mixture immediately and at four hours after addition of substrate. The samples were prepared for analysis by mixing with two volumes of acetonitrile followed by centrifugation to pellet precipitated proteins. The […] were evaporated to dryness before analysis. Dried samples were reconstituted in 300 μL 50/50 10 mM ammonium formate, pH 3.0/acetonitrile, and 10 μL aliquots were analyzed by LC/MS/MS. 1-{2-[5-(2-Methoxy-ethoxy)-benzoimidazol-1-yl]-quinolin-8-yl}-piperidin-4-ylamine was incubated in dog hepatocytes under the same conditions as a positive control.
(§2) Separation of 1-{2-[5-(3-Methyl-oxetan-3-ylmethoxy)-benzoimidazol-1-yl]-quinolin-8-yl}-piperidin-4-ylamine and its metabolites in all samples was accomplished on a Zorbax SB-C18 reverse phase column (5 μm, 4.6×150 mm) at a flow rate of 1.0 mL/min. The mobile phase consisted of 10 mM ammonium formate, pH 3.0, (A) and acetonitrile (B). After injection of the sample, the column was washed with 10% B for 5 minutes followed by resolution of the metabolites with a linear gradient from 10% to 50% B over a 20-minute period. A 5-minute wash with 90% B followed by a 7-minute re-equilibration to 10% B was used between subsequent injections.
(§3) All Samples were analyzed by a Finnigan TSQ7000 mass spectrometer operated in positive ion mode with in-line ultraviolet detection (Shimadzu, λ=254 nm). Ionspray voltage and capillary temperature were maintained at 4.5 kV and 350 degrees Celsius, respectively. Product ion spectra were obtained with CID of 35 V; further fragmentation was obtained by conducting product ion scans with source CID of 10 V. Neutral loss scans of 176 (for glucuronide detection) were conducted with CID of 30 V.
(§4) The metabolites were initially identified by molecular ion (Q1) scans of the sample mixture. Potential metabolites were characterized by fragmentation of the metabolite molecular ions and comparison of the resulting fragmentation patterns with the 1-{2-[5-(3-Methyl-oxetan-3-ylmethoxy)-benzoimidazol-1-yl]-quinolin-8-yl}-piperidin-4-ylamine product mass spectrum.

[2] = Metabolite identification, rat cryopreserved hepatocyte incubation of parent compound; type: in vitro ADME; conditions: parent incubated up to four hours
Experimental: as §1, §2, §3, §4

[3] = Metabolite identification, dog cryopreserved hepatocyte incubation of parent compound; type: in vitro ADME; conditions: parent incubated up to four hours
Experimental: as §1, §2, §3, §4

[4] = Metabolite identification, human liver cytosol incubation of parent compound; type: in vitro ADME; conditions: parent incubated one hour; note: key: −: metabolite not observed; +: minor metabolite; +++: major metabolite
Experimental: (§5) Cytosol: 1-{2-[5-(3-Methyl-oxetan-3-ylmethoxy)-benzoimidazol-1-yl]-quinolin-8-yl}-piperidin-4-ylamine (10 μM) was incubated and prepared for analysis. Cryopreserved human liver cytosol from Tissue Transformation Technologies Inc., Edison, N.J., (lot: HHC-0255, ˜20 mg/mL) and dog liver cytosol (˜35 mg/mL) were thawed on ice immediately before the incubation. The cytosol was diluted 10-fold in 100 mM potassium phosphate buffer (pH 7.4) before addition of 1-{2-[5-(3-Methyl-oxetan-3-ylmethoxy)-benzoimidazol-1-yl]-quinolin-8-yl}-piperidin-4-ylamine (final concentration […]) for a final incubation volume of 2 mL. Samples were incubated for one hour in a 37° C. water bath, then quenched with two volumes of acetonitrile. Samples were vortexed and subsequently centrifuged at 3000 rpm. Samples were prepared for analysis by centrifugation at 3000 rpm to pellet the precipitated proteins and by evaporating the supernatant to dryness. The samples were reconstituted in 300 μL 50/50 10 mM ammonium formate, pH 3.0/acetonitrile. A 10 μL reconstituted aliquot was analyzed by LC/MS/MS. 1-{2-[5-(2-Methoxy-ethoxy)-benzoimidazol-1-yl]-quinolin-8-yl}-piperidin-4-ylamine was incubated in human and dog liver cytosol under the same conditions as a positive control.
as §2, §3, §4

[5] = Metabolite identification, dog liver cytosol incubation of parent compound; type: in vitro ADME; conditions: for Relative Abundance of metabolite, Dog Liver Cytosol: parent incubated one hour
Experimental: as §5, §2, §3, §4

[6] = Metabolite identification in dog plasma after intravenous administration of parent compound; type: in vivo, beagle dogs; conditions: for Relative Abundance of metabolite, Dog Plasma (IV): 2.0 mg/kg intravenous parent, 20 min, 40 min and 1 h samples
Experimental: Dog Plasma and Bile: Dog plasma was collected from beagle dogs following intravenous administration (2.0 mg/kg) of 1-{2-[5-(3-Methyl-oxetan-3-ylmethoxy)-benzoimidazol-1-yl]-quinolin-8-yl}-piperidin-4-ylamine. A 200 μL plasma sample from each dog was pooled for each timepoint. Three volumes of acetonitrile were added to the pooled plasma samples to precipitate proteins. Following centrifugation, the supernatant was recovered and dried at 37° C. under nitrogen and reconstituted in 150 μL 50/50 10 mM ammonium formate, pH 3.0/acetonitrile. A 20 μL aliquot was analyzed by LC/MS/MS.
as §2, §3, §4

[7] = Metabolite identification in dog bile after administration of parent compound; type: in vivo, beagle dogs; conditions: for Relative Abundance of metabolite, Dog Bile (IV): only 2-4 hr samples analyzed, cannot distinguish between M6 and M7; for Excretion in bile: dog, after 5.0 mg/kg oral administration of parent
[8] = Metabolite identification, human liver microsome incubation of parent compound; type: in vitro ADME; conditions: for Relative Abundance of metabolite, HLM-NADPH ctrl: human liver microsomes, control without NADPH; for Relative Abundance of metabolite, Human Liver Microsomes: parent incubated 1 h with NADPH, relative peak height on UV chromatogram
Experimental: (§6) Microsomes: 1-{2-[5-(3-Methyl-oxetan-3-ylmethoxy)-benzoimidazol-1-yl]-quinolin-8-yl}-piperidin-4-ylamine (10 μM) was incubated in mouse, rat, dog, monkey and human liver microsomes and collected for analysis. 1-{2-[5-(3-Methyl-oxetan-3-ylmethoxy)-benzoimidazol-1-yl]-quinolin-8-yl}-piperidin-4-ylamine, (final concentration […]) was incubated in mouse (0.45 mg/mL protein), rat ([…] protein), dog ([…] protein), monkey (0.42 mg/mL protein) and human liver microsomes (1.56 mg/mL protein) containing MgCl2 (10 mM) and NADPH (1 mM) in potassium phosphate buffer (100 mM, pH 7.4) at 37° C. The total volume of each reaction mixture was 5 mL containing a total cytochrome P450 concentration of […]. Each mixture was preincubated for 10 minutes before addition of NADPH to initiate the reaction. The reaction was stopped one hour after addition of NADPH by adding two volumes of acetonitrile to the reaction mixture. […] Samples were prepared for analysis by centrifugation at 300 rpm to pellet the precipitated proteins and by evaporating the supernatant to dryness. The dried […] were reconstituted in 600 μL 50/50 10 mM ammonium formate, pH 3.0/acetonitrile, and 10 μL aliquots were analyzed by liquid chromatography and mass spectroscopy (LC/MS/MS). 1-{2-[5-(2-Methoxy-ethoxy)-benzoimidazol-1-yl]-quinolin-8-yl}-piperidin-4-ylamine was incubated in dog liver microsomes under the same conditions as a positive control.
as §2, §3, §4

[9] = Metabolite identification, rat liver microsome incubation of parent compound; type: in vitro ADME; conditions: for Relative Abundance of metabolite, Rat Liver Microsomes: parent incubated 1 h with NADPH; for Relative Abundance of metabolite, RLM-NADPH ctrl: rat liver microsomes, control without NADPH
Experimental: as §6, §2, §3, §4

[10] = Metabolite identification, dog liver microsome incubation of parent compound; type: in vitro ADME; conditions: for Relative Abundance of metabolite, DLM-NADPH ctrl: dog liver microsomes, control without NADPH; for Relative Abundance of metabolite, Dog Liver Microsomes: parent incubated 1 h with NADPH
Experimental: as §6, §2, §3, §4

Compound | Relative Abundance of metabolite, Human Hepatocytes [1] | Relative Abundance of metabolite, Rat Hepatocytes [2] | Relative Abundance of metabolite, Dog Hepatocytes [3] | Relative Abundance of metabolite, Human Liver Cytosol [4] | Relative Abundance of metabolite, Dog Liver Cytosol [5] | Relative Abundance of metabolite, Dog Plasma (IV) [6] | Relative Abundance of metabolite, Dog Bile (IV) [7] | Formation of M1, cofactor dependence ([8]; human) | Relative Abundance of metabolite, HLM-NADPH ctrl [8] | Relative Abundance of metabolite, Human Liver Microsomes [8] | Relative Abundance of metabolite, Rat Liver Microsomes [9] | Formation of M1, cofactor dependence ([9]; rat) | Relative Abundance of metabolite, RLM-NADPH ctrl [9] | Formation of M1, cytochrome P450 mediation ([10]; dog) | Relative Abundance of metabolite, DLM-NADPH ctrl [10] | Relative Abundance of metabolite, Dog Liver Microsomes [10] | Metabolite status in dog liver cytosolic incubations [5] | Metabolite status in dog plasma ([6]; twenty minutes to one hour after 2.0 mg/kg intravenous administration of parent) | Excretion in bile [7] | Observation in bile ([7]; dog bile 2-4 hr post-dose of parent)
CC(CO)(COc1ccc2c(c1)ncn2-c1ccc2cccc(N3CCC(N)CC3)c2n1)COC1O[C@H](C(=O)O)[C@@H](O)[C@H](O)[C@H]1O (stereo in doubt) [Metabolite M5, 6-(3-{1-[8-(4-Amino-piperidin-1-yl)-quinolin-2-yl]-1H-benzoimidazol-5-yloxy}-2-hydroxymethyl-2-methyl-propoxy)-3,4,5-trihydroxy-tetrahydro-pyran-2-carboxylic acid] | − | − | + (minor metabolite) | − | − | − | − |  |  |  |  |  |  |  |  |  |  |  |  | 
CC(CO)(CO)COc1ccc2c(c1)ncn2-c1ccc2cccc(N3CCC(N)CC3)c2n1 [Metabolite M1, 2-{1-[8-(4-Amino-piperidin-1-yl)-quinolin-2-yl]-1H-benzoimidazol-5-yloxymethyl}-2-methyl-propane-1,3-diol] | +++ (major metabolite) | +++ (major metabolite) | +++ (major metabolite) | − | +++ (major metabolite) | +++ (major metabolite) | +++ (major metabolite) | NADPH dependent | + (minor metabolite) | +++ (major metabolite) | +++ (major metabolite) | NADPH dependent | + (minor metabolite) | not mediated by cytochrome P450 | +++ (major metabolite) | +++ (major metabolite) | predominant metabolite | major metabolite | excreted in bile | 
CC(CO)(COc1ccc2c(c1)ncn2-c1ccc2cccc(N3CCC(N)CC3)c2n1)C(=O)O (stereo not drawn) [Metabolite M2, 3-{1-[8-(4-Amino-piperidin-1-yl)-quinolin-2-yl]-1H-benzoimidazol-5-yloxy}-2-hydroxymethyl-2-methyl-propionic acid] | +++ (major metabolite) | +++ (major metabolite) | + (minor metabolite) | − | − | − | + (minor metabolite) |  | − | +++ (major metabolite) | − |  | − |  | − | + (minor metabolite) |  |  | excreted in bile | 
NC1CCN(c2cccc3ccc(-n4cnc5cc(O)ccc54)nc23)CC1 [Metabolite M8, 1-[8-(4-Amino-piperidin-1-yl)-quinolin-2-yl]-1H-benzoimidazol-5-ol] | − | − | − | − | − | − | + (minor metabolite) |  | − | − | − |  | − |  | − | − |  |  |  | observed in bile

— US20100016353A1, “BENZOIMIDAZOLE DERIVATIVES USEFUL AS ANTIPROLIFERATIVE AGENTS” (priority 2004, published 2010)
